Laboratory results taken from patent publication US20170037028A1 (BAYER PHARMA AKTIENGESELLSCHAFT, priority 2013, published 2017).

Molecular target: T1, GLUT1 (Homo sapiens, UniProt P11166)
T1 sequence (P11166 1-492): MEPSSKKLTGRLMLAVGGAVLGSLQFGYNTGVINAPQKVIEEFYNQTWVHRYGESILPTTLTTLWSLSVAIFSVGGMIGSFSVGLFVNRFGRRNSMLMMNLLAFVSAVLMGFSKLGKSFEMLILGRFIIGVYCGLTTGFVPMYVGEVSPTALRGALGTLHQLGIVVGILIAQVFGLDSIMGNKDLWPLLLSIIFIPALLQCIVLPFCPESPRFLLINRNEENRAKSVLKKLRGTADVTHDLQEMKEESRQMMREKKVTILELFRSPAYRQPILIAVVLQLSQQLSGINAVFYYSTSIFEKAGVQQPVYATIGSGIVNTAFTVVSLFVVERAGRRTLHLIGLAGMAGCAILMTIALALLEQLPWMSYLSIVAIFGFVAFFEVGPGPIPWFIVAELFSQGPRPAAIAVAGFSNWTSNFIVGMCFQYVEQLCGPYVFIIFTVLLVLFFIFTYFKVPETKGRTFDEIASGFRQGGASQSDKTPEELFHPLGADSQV
Assay: Indirect measurement of GLUT1 activity by quantification of intracellular ATP levels (glucose induced ATP increase)
Format: cell-based
Parameters: endogenous in cells; host or cells: DLD1 or CHO-K1
Conditions: read-out: IC50 regarding glucose induced ATP increase (GLUT1 inhibition)
In short: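 DLD1 or CHO-K1 cells were starved overnight in glucose-free medium with 1% FCS, then combined with an oxidative phosphorylation inhibitor. GLUT1 activity was read as glucose-induced ATP increase, GLUT2 as fructose-induced. Intracellular ATP was quantified by CellTiter-Glo luminescence.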

Row | SMILES | IC50 [nM]
1 | CCc1c(NC(=O)c2cc(C(N)=O)nc3ccccc23)c(C)nn1Cc1ccc(C#N)cc1 [Example 326, N^4-[1-(4-cyanobenzyl)-5-ethyl-3-methyl-1H-pyrazol-4-yl]quinoline-2,4-dicarboxamide] | 14.3
2 | Cc1c(NC(=O)c2cc(C(N)=O)nc3c(Cl)cccc23)c(C(F)(F)F)nn1Cc1ccc(C#N)cc1 [Example 338, 8-chloro-N^4-[1-(4-cyanobenzyl)-5-methyl-3-(trifluoromethyl)-1H-pyrazol-4-yl]quinoline-2,4-dicarboxamide] | 2.7
3 | Cc1c(NC(=O)c2cc(C(=O)NCCCO)nc3cc(F)ccc23)c(C(F)(F)F)nn1Cc1ccc(C#N)cc1 [Example 341, N^4-[1-(4-cyanobenzyl)-5-methyl-3-(trifluoromethyl)-1H-pyrazol-4-yl]-7-fluoro-N^2-(3-hydroxypropyl)quinoline-2,4-dicarboxamide] | 290
4 | Cc1c(NC(=O)c2cc(C(=O)NCCN3CCOCC3)nc3cc(F)ccc23)c(C(F)(F)F)nn1Cc1ccc(C#N)cc1 [Example 342, N^4-[1-(4-cyanobenzyl)-5-methyl-3-(trifluoromethyl)-1H-pyrazol-4-yl]-7-fluoro-N^2-[2-(morpholin-4-yl)ethyl]quinoline-2,4-dicarboxamide] | 336
5 | COCCNc1ccc2nc(C(N)=O)cc(C(=O)Nc3c(C(F)(F)F)nn(Cc4ccc(C#N)cc4)c3C)c2c1 [Example 344, N^4-[1-(4-cyanobenzyl)-5-methyl-3-(trifluoromethyl)-1H-pyrazol-4-yl]-6-[(2-methoxyethyl)amino]quinoline-2,4-dicarboxamide] | 5.8
6 | Cc1c(NC(=O)c2cc(C(N)=O)nc3ccc(N4CCCCC4)cc23)c(C(F)(F)F)nn1Cc1ccc(C#N)cc1 [Example 345, N^4-[1-(4-cyanobenzyl)-5-methyl-3-(trifluoromethyl)-1H-pyrazol-4-yl]-6-(piperidin-1-yl)quinoline-2,4-dicarboxamide] | 7.2
7 | Cc1nn(CCCc2ccc(C#N)cc2)c(C)c1NC(=O)c1cc(C(F)(F)F)nc2ccc(Br)cc12 [Example 348, 6-bromo-N-{1-[3-(4-cyanophenyl)propyl]-3,5-dimethyl-1H-pyrazol-4-yl}-2-(trifluoromethyl)quinoline-4-carboxamide] | 6.1
8 | COc1cc(C(=O)Nc2c(C)nn(CCCc3ccc(C#N)cc3)c2C)c2ccccc2n1 [Example 349, N-{1-[3-(4-cyanophenyl)propyl]-3,5-dimethyl-1H-pyrazol-4-yl}-2-methoxyquinoline-4-carboxamide] | 15.7
9 | Cc1nn(Cc2ccc(C#N)cn2)c(C)c1NC(=O)c1cc(C(N)=O)nc2ccccc12 [Example 355, N^4-{1-[(5-cyanopyridin-2-yl)methyl]-3,5-dimethyl-1H-pyrazol-4-yl}quinoline-2,4-dicarboxamide] | 3.9
10 | Cc1nn(Cc2ccc(C#N)cn2)c(C)c1NC(=O)c1cc(C(N)=O)nc2cc(F)ccc12 [Example 356, N^4-{1-[(5-cyanopyridin-2-yl)methyl]-3,5-dimethyl-1H-pyrazol-4-yl}-7-fluoroquinoline-2,4-dicarboxamide] | 9.3
11 | COc1cc(C(=O)Nc2c(C)nn(Cc3ccc(C#N)cn3)c2C)c2ccccc2n1 [Example 357, N-{1-[(5-cyanopyridin-2-yl)methyl]-3,5-dimethyl-1H-pyrazol-4-yl}-2-methoxyquinoline-4-carboxamide] | 28.8

Further compounds by falling IC50, results first:

Row | IC50 [nM] | SMILES
12 | 3.9 | CCc1nn(Cc2ccc(C#N)cc2)c(C)c1NC(=O)c1cc(C(N)=O)nc2ccccc12 [Example 325, N^4-[1-(4-cyanobenzyl)-3-ethyl-5-methyl-1H-pyrazol-4-yl]quinoline-2,4-dicarboxamide]
13 | 3.7 | CCc1nn(Cc2ccc(C#N)cc2)c(C)c1NC(=O)c1cc(C(N)=O)nc2cc(F)ccc12 [Example 327, N^4-[1-(4-cyanobenzyl)-3-ethyl-5-methyl-1H-pyrazol-4-yl]-7-fluoroquinoline-2,4-dicarboxamide]
14 | 3.6 | Cc1nn(Cc2ccc(C#N)cn2)c(C)c1NC(=O)c1cc(C(N)=O)nc2cc(F)c(F)cc12 [Example 354, N^4-{1-[(5-cyanopyridin-2-yl)methyl]-3,5-dimethyl-1H-pyrazol-4-yl}-6,7-difluoroquinoline-2,4-dicarboxamide]
15 | 2.3 | Cc1nn(Cc2ccc(C#N)cn2)c(C)c1NC(=O)c1cc(C(F)(F)F)nc2ccc(Br)cc12 [Example 353, 6-bromo-N-{1-[(5-cyanopyridin-2-yl)methyl]-3,5-dimethyl-1H-pyrazol-4-yl}-2-(trifluoromethyl)quinoline-4-carboxamide]
16 | 2.2 | Cc1nn(CCCc2ccc(C#N)cc2)c(C)c1NC(=O)c1cc(C(N)=O)nc2ccccc12 [Example 347, N^4-{1-[3-(4-cyanophenyl)propyl]-3,5-dimethyl-1H-pyrazol-4-yl}quinoline-2,4-dicarboxamide]
17 | 2 | Cc1c(NC(=O)c2cc(C(N)=O)nc3cc(F)ccc23)c(C(F)(F)F)nn1Cc1ccc(C#N)cn1 [Example 360, N^4-{1-[(5-cyanopyridin-2-yl)methyl]-5-methyl-3-(trifluoromethyl)-1H-pyrazol-4-yl}-7-fluoroquinoline-2,4-dicarboxamide]
18 | 1.9 | Cc1c(NC(=O)c2cc(C(N)=O)nc3cc(F)c(Cl)cc23)c(C(C)C)nn1Cc1ccc(C#N)cc1 [Example 324, 6-chloro-N^4-[1-(4-cyanobenzyl)-3-isopropyl-5-methyl-1H-pyrazol-4-yl]-7-fluoroquinoline-2,4-dicarboxamide]
19 | 1.6 | Cc1nn(Cc2ccc(C#N)cn2)c(C)c1NC(=O)c1cc(C(N)=O)nc2cc(F)c(Cl)cc12 [Example 351, 6-chloro-N^4-{1-[(5-cyanopyridin-2-yl)methyl]-3,5-dimethyl-1H-pyrazol-4-yl}-7-fluoroquinoline-2,4-dicarboxamide]
20 | 1.3 | Cc1c(NC(=O)c2cc(C(N)=O)nc3cc(F)c(Cl)cc23)c(C(F)(F)F)nn1Cc1ccc(C#N)cn1 [Example 359, 6-chloro-N^4-{1-[(5-cyanopyridin-2-yl)methyl]-5-methyl-3-(trifluoromethyl)-1H-pyrazol-4-yl}-7-fluoroquinoline-2,4-dicarboxamide]
21 | 1.2 | Cc1c(NC(=O)c2cc(C(N)=O)nc3ccc(Br)cc23)c(C(F)(F)F)nn1Cc1ccc(C#N)cn1 [Example 358, 6-bromo-N^4-{1-[(5-cyanopyridin-2-yl)methyl]-5-methyl-3-(trifluoromethyl)-1H-pyrazol-4-yl}quinoline-2,4-dicarboxamide]
22 | 1.1 | Cc1nn(Cc2ccc(C#N)cn2)c(C)c1NC(=O)c1cc(C(N)=O)nc2ccc(Br)cc12 [Example 350, 6-bromo-N^4-{1-[(5-cyanopyridin-2-yl)methyl]-3,5-dimethyl-1H-pyrazol-4-yl}quinoline-2,4-dicarboxamide]
23 | 0.7 | Cc1cc2c(C(=O)Nc3c(C(F)(F)F)nn(Cc4ccc(C#N)cc4)c3C)cc(C(N)=O)nc2cc1F [Example 343, N^4-[1-(4-cyanobenzyl)-5-methyl-3-(trifluoromethyl)-1H-pyrazol-4-yl]-7-fluoro-6-methylquinoline-2,4-dicarboxamide]
24 | 0.6 | Cc1nn(CCCc2ccc(C#N)cc2)c(C)c1NC(=O)c1cc(C(N)=O)nc2cc(F)c(Cl)cc12 [Example 346, 6-chloro-N^4-{1-[3-(4-cyanophenyl)propyl]-3,5-dimethyl-1H-pyrazol-4-yl}-7-fluoroquinoline-2,4-dicarboxamide]
